From US20030113704A1, “Methods for inactivation of pathogens in biological materials” (priority 2000, published 2003)

Tests used:
[1] = test system: Bovine Viral Diarrhea Virus (BVDV); test: Viral inactivation in leukoreduced PRBC with Erythrosol (Example 5), BVDV; format: cell-based; settings: red cells, 0.1 mM inactivation compound, 1 mM glutathione, two hours at RT
[2] = test system: Staphylococcus aureus; test: Bacterial inactivation in leukoreduced PRBC with Erythrosol (Example 5), S. aureus; format: cell-based; settings: red cells, 0.2 mM compound, 2 mM glutathione, two hours at RT
[3] = test system: Staphylococcus epidermidis; test: Bacterial inactivation in leukoreduced PRBC with Erythrosol (Example 5), S. epidermidis; format: cell-based; settings: red cells, 0.2 mM compound, 2 mM glutathione, two hours at RT
[4] = test system: Cell-Free HIV; test: Viral inactivation in leukoreduced PRBC with Erythrosol (Example 5), cell-free HIV; format: cell-based, Human Immunodeficiency Virus; settings: red cells, 0.2 mM inactivation compound, 3 mM glutathione, two hours at RT
[5] = test system: Vesicular Stomatitis Virus type Indiana (VSIV); format: cell-based
[6] = test system: Yersinia enterocolitica; test: Bacterial inactivation in leukoreduced PRBC with Erythrosol (Example 5), Y. enterocolitica; format: cell-based; settings: red cells, 0.2 mM compound, 2 mM glutathione, two hours at RT
[7] = test system: Bluetongue type 11 Virus; test: Viral inactivation in leukoreduced PRBC with Erythrosol (Example 5), Bluetongue type 11; format: cell-based; settings: red cells, 0.2 mM inactivation compound, 2 mM glutathione, two hours at RT
[8] = test system: Escherichia coli K12; test: Bacterial inactivation in leukoreduced PRBC with Erythrosol (Example 5), E. coli K12; format: cell-based; settings: red cells, 0.2 mM compound, 2 mM glutathione, two hours at RT
[9] = test system: Bacilus subtilis; test: Bacterial inactivation in leukoreduced PRBC with Erythrosol (Example 5), B. subtilis; format: cell-based; settings: red cells, 0.2 mM compound, 2 mM glutathione, two hours at RT
[10] = test system: Respiratory Synctial Virus (RSV); test: Viral inactivation in leukoreduced PRBC with Erythrosol (Example 5), RSV; format: cell-based; settings: red cells, 0.2 mM inactivation compound, 2 mM glutathione, two hours at RT
[11] = test system: Cell-Associated HIV; test: Viral inactivation in leukoreduced PRBC with Erythrosol (Example 5), cell-associated HIV; format: cell-based, Human Immunodeficiency Virus; settings: red cells, 0.2 mM inactivation compound, 3 mM glutathione, two hours at RT
[12] = test system: Deinococcus radiodurans; test: Bacterial inactivation in leukoreduced PRBC with Erythrosol (Example 5), D. radiodurans; format: cell-based; settings: red cells, 0.2 mM compound, 2 mM glutathione, two hours at RT
[13] = test system: Listeria monocytogenes; test: Bacterial inactivation in leukoreduced PRBC with Erythrosol (Example 5), L. monocytogenes; format: cell-based; settings: red cells, 0.2 mM compound, 2 mM glutathione, two hours at RT
[14] = test system: Serratia marcescens; test: Bacterial inactivation in leukoreduced PRBC with Erythrosol (Example 5), S. marcescens; format: cell-based; settings: red cells, 0.2 mM compound, 2 mM glutathione, two hours at RT
[15] = test system: Salmonella choleraesuis; test: Bacterial inactivation in leukoreduced PRBC with Erythrosol (Example 5), S. choleraesuis; format: cell-based; settings: red cells, 0.2 mM compound, 2 mM glutathione, two hours at RT
[16] = test system: Serratia liquifaciens; test: Bacterial inactivation in leukoreduced PRBC with Erythrosol (Example 5), S. liquifaciens; format: cell-based; settings: red cells, 0.2 mM compound, 2 mM glutathione, two hours at RT
[17] = test system: Herpes Simplex Virus (HSV); test: Viral inactivation in leukoreduced PRBC with Erythrosol (Example 5), HSV; format: cell-based; settings: red cells, 0.003 mM inactivation compound, 3 mM glutathione, two hours at RT
[18] = test system: Duck Hepatitis B Virus (DHBV); test: Viral inactivation in leukoreduced PRBC with Erythrosol (Example 5), DHBV; format: cell-based; settings: red cells, 0.1 mM inactivation compound, 3 mM glutathione, two hours at RT
[19] = test system: Pseudomonas aeruginosa; test: Bacterial inactivation in leukoreduced PRBC with Erythrosol (Example 5), P. aeruginosa; format: cell-based; settings: red cells, 0.2 mM compound, 2 mM glutathione, two hours at RT

For O=C(CCNc1c2ccccc2nc2ccccc12)OCCN(CCCl)CCCl [β-alanine, N-(acridin-9-yl), 2-[bis(2-chloroethyl)amino]ethyl ester], the “Log inactivation BVDV” value [1] was >7.3 log, the “Log inactivation Staphylococcus aureus” value [2] was >5.1 log and the “Log inactivation Staphylococcus epidermidis” value [3] was >6.9 log. The “Log inactivation Cell-Free HIV” value [4] was >6.5 log, the “Log inactivation VSIV” value [5] was 5.7 log and the “Log inactivation Yersinia enterocolitica” value [6] was 7.4 log. The “Log inactivation Bluetongue type 11” value [7] was 6.0 log, the “Log inactivation Eseherichia coli K12” value [8] was 7.4 log and the “Log inactivation Bacilus subtilis” value [9] was >6.3 log. For the same molecule, the “Log inactivation RSV” value [10] was 5.6 log, the “Log inactivation Cell-Associated HIV” value [11] was >6.2 log and the “Log inactivation Deinococcus radiodurans” value [12] was >6.0 log. The “Log inactivation Listeria monocytogenes” value [13] was >7.1 log, the “Log inactivation Serratia marcescens” value [14] was 4.1 log and the “Log inactivation Salmonella choleraesuis” value [15] was 4.8 log. The “Log inactivation Serratia liquifaciens” value [16] was 3.8 log, the “Log inactivation HSV” value [17] was >6.0 log and the “Log inactivation DHBV” value [18] was >6.3 log. For the same molecule, the “Log inactivation Pseudomonas aeruginosa” value [19] was 4.5 log.
